Data as given in the supplement of paper PMC10307832.

Columns and labels:
Experiment in all cases: relative viability (nuclei count vs DMSO), 5 days (fraction); higher = more cells survive
[1] = compound: Cc1ccc2nc(NCCN)c3ncc(C)n3c2c1 + COc1cccc2cc(-c3nc([C@H]4CC[C@H](C(=O)O)CC4)n4ncnc(N)c34)[nH]c12 [OSI-027] (partner 0.5 µM)
Summary of the method: (§1)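 Medians of duplicate plates are given as relative viability. That measure is the nuclei count in treated wells divided by the count in vehicle wells. Counts were taken on 4× images of lung cancer cell lines in 1536-well plates, 5 days after pin-tool dosing the day after seeding with one drug alone or a fixed anchor-drug dose plus five library-drug doses (not always all listed) in √10 steps.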

[2] = compound: Cc1ccc2nc(NCCN)c3ncc(C)n3c2c1 + C[C@@H](Oc1cc(-c2cnn(C3CCNCC3)c2)cnc1N)c1c(Cl)ccc(F)c1Cl [Crizotinib] (partner 1 µM)
Summary of the method: as §1

[3] = compound: Cc1ccc2nc(NCCN)c3ncc(C)n3c2c1 + Nc1ncn([C@H]2C[C@H](O)[C@@H](CO)O2)c(=O)n1 [Decitabine] (partner 2 µM)
Summary of the method: as §1

Salubrinal + OSI-027 = compound: O=C(/C=C/c1ccccc1)NC(NC(=S)Nc1cccc2cccnc12)C(Cl)(Cl)Cl [Salubrinal] + COc1cccc2cc(-c3nc([C@H]4CC[C@H](C(=O)O)CC4)n4ncnc(N)c34)[nH]c12 [OSI-027] (partner 0.5 µM)
Summary of the method: as §1

Row | Cell Line | relative viability ([1]; first compound 0.04 µM) | relative viability ([1]; first compound 0.1265 µM) | relative viability ([1]; first compound 0.4 µM) | relative viability ([1]; first compound 1.265 µM) | relative viability ([1]; first compound 4 µM) | relative viability ([2]; first compound 0.04 µM) | relative viability ([2]; first compound 0.1265 µM) | relative viability ([2]; first compound 0.4 µM) | relative viability ([2]; first compound 1.265 µM) | relative viability ([2]; first compound 4 µM) | relative viability ([3]; first compound 0.04 µM) | relative viability ([3]; first compound 0.1265 µM) | relative viability ([3]; first compound 0.4 µM) | relative viability ([3]; first compound 1.265 µM) | relative viability ([3]; first compound 4 µM) | relative viability (Salubrinal + OSI-027; first compound 0.08 µM) | relative viability (Salubrinal + OSI-027; first compound 0.253 µM) | relative viability (Salubrinal + OSI-027; first compound 0.8 µM) | relative viability (Salubrinal + OSI-027; first compound 2.53 µM) | relative viability (Salubrinal + OSI-027; first compound 8 µM)
1 | ChaGo-K-1 | 0.601 | 0.586 | 0.601 | 0.475 | 0.419 | 1.17 | 1.03 | 1.15 | 0.989 | 0.922 | 0.542 | 0.546 | 0.511 | 0.545 | 0.512 | 0.731 | 0.479 | 0.581 | 0.612 | 0.435
2 | NCI-H1650 | 0.784 | 0.563 | 0.53 | 0.548 | 0.438 | 0.965 | 0.969 | 0.995 | 0.97 | 0.571 | 0.365 | 0.392 | 0.374 | 0.393 | 0.38 | 0.929 | 0.525 | 0.718 | 0.583 | 0.607
3 | NCI-H2009 | 0.764 | 0.668 | 0.722 | 0.632 | 0.525 | 1.06 | 1.06 | 1.14 | 1.04 | 0.784 | 0.364 | 0.394 | 0.436 | 0.395 | 0.368 | 0.63 | 0.613 | 0.659 | 0.6 | 0.498
4 | LOU-NH91 | 0.795 | 0.726 | 0.708 | 0.762 | 0.668 | 0.753 | 0.714 | 0.748 | 0.727 | 0.749 | 0.814 | 0.807 | 0.808 | 0.827 | 0.797 | 0.721 | 0.708 | 0.744 | 0.737 | 0.688
5 | NCI-H2405 | 0.694 | 0.628 | 0.686 | 0.623 | 0.636 | 0.951 | 0.827 | 0.853 | 0.838 | 0.791 | 0.706 | 0.713 | 0.747 | 0.728 | 0.741 | 0.614 | 0.643 | 0.664 | 0.637 | 0.599
6 | LCLC-97TM1 | 0.592 | 0.463 | 0.452 | 0.828 | 0.437 | 0.379 | 0.394 | 0.255 | 0.287 | 0.293 | 0.215 | 0.21 | 0.244 | 0.22 | 0.236 | 0.574 | 0.433 | 0.671 | 0.56 | 0.601
7 | NCI-H596 | 0.709 | 0.749 | 0.617 | 0.709 | 0.737 | 1.06 | 0.929 | 1.03 | 0.961 | 0.851 | 1.02 | 0.967 | 0.979 | 0.887 | 0.897 | 0.657 | 0.721 | 0.793 | 0.716 | 0.646
8 | NCI-H727 | 0.852 | 0.707 | 0.754 | 0.645 | 0.585 | 0.984 | 0.82 | 0.779 | 0.811 | 0.925 | 0.976 |  | 0.995 | 0.84 | 0.797 | 0.505 | 0.621 | 0.562 | 0.618 | 0.575
9 | H3255 | 0.663 | 0.588 | 0.592 | 0.522 | 0.541 | 0.939 | 0.743 | 0.846 | 0.788 | 0.694 | 0.594 | 0.611 | 0.546 | 0.69 | 0.702 | 0.689 | 0.553 | 0.748 | 0.603 | 0.603
10 | NCI-H2170 | 0.737 | 0.737 | 0.657 | 0.715 | 0.701 | 1.17 | 1.14 | 1.1 | 1.21 | 1.06 | 0.473 | 0.442 | 0.433 | 0.448 | 0.461 | 0.71 | 0.702 | 0.783 | 0.687 | 0.47
11 | NCI-H1437 | 1 | 0.871 | 0.886 | 0.879 | 0.884 | 0.96 | 0.968 | 0.965 | 0.952 | 0.915 | 0.581 | 0.526 | 0.596 | 0.495 | 0.498 | 0.9 | 0.811 | 0.924 | 0.912 | 0.851
12 | NCI-H358 | 0.807 | 0.708 | 0.694 | 0.797 | 0.858 | 0.613 | 0.594 | 0.691 | 0.583 | 0.487 | 0.225 | 0.216 | 0.239 | 0.257 | 0.206 | 0.83 | 0.74 | 0.848 | 0.582 | 0.672
13 | LU99A | 0.34 | 0.268 | 0.283 | 0.273 | 0.298 | 0.636 | 0.549 | 0.49 | 0.565 | 0.635 | 1 | 0.922 | 0.91 | 0.812 | 0.833 | 0.241 | 0.29 | 0.306 | 0.294 | 0.265
14 | SK-MES-1 | 0.66 | 0.659 | 0.59 | 0.668 | 0.632 | 0.924 | 0.939 | 0.911 | 1.03 | 0.912 | 0.36 | 0.462 | 0.421 | 0.445 | 0.398 | 0.623 | 0.629 | 0.675 | 0.448 | 0.445
15 | HCC-827 | 0.802 | 0.779 | 0.873 | 0.841 | 0.736 | 0.792 | 0.903 | 0.932 | 0.866 | 0.927 | 0.335 | 0.325 | 0.333 | 0.391 | 0.284 | 0.88 | 0.794 | 0.822 | 0.788 | 0.668
16 | LK-2 | 0.173 | 0.202 | 0.182 | 0.188 | 0.18 | 0.228 | 0.258 | 0.214 | 0.222 | 0.238 | 0.289 | 0.393 | 0.337 | 0.311 | 0.297 | 0.185 | 0.194 | 0.258 | 0.212 | 0.214
17 | HCC-366 | 1.11 | 1.05 | 0.677 | 0.892 | 0.899 | 0.642 | 0.553 | 0.582 | 0.508 | 0.502 | 0.349 | 0.362 | 0.302 | 0.357 | 0.34 | 1.04 | 1.13 | 0.91 | 0.844 | 0.549
18 | BEN | 0.316 | 0.291 | 0.328 | 0.276 | 0.324 | 0.944 | 0.59 | 0.872 | 0.798 | 0.842 | 0.623 | 0.737 | 0.686 | 0.885 | 0.685 | 0.322 | 0.407 | 0.318 | 0.309 | 0.324
19 | NCI-H23 | 0.828 | 0.709 | 0.54 | 0.607 | 0.531 | 0.731 | 0.549 | 0.554 | 0.437 | 0.447 | 0.312 | 0.356 | 0.321 | 0.328 | 0.34 | 0.59 | 0.573 | 0.647 | 0.539 | 0.606
20 | 201T | 0.863 | 0.586 | 0.761 | 0.805 | 0.64 | 1.07 | 1.06 | 1.07 | 1.09 | 1.06 | 0.838 | 0.818 | 0.862 | 0.901 | 0.839 | 0.933 | 0.799 | 0.863 | 0.782 | 0.732
21 | NCI-H460 | 0.674 | 0.598 | 0.67 | 0.718 | 0.537 | 0.98 | 0.923 | 0.952 | 0.851 | 0.64 | 0.479 | 0.494 | 0.5 | 0.501 | 0.434 | 1.21 | 0.406 | 1.03 | 0.514 | 0.317
22 | NCI-H661 | 0.808 | 0.713 | 0.732 | 0.82 | 0.693 | 1.05 | 1.07 | 0.931 | 1.07 | 0.959 | 0.559 | 0.562 | 0.56 | 0.513 | 0.552 | 0.781 | 0.58 | 0.77 | 0.705 | 0.603
23 | HCC-15 | 0.708 | 0.807 | 0.544 | 0.659 | 0.581 | 0.791 | 0.8 | 0.779 | 0.742 | 0.693 | 0.624 | 0.693 | 0.474 | 0.598 | 0.522 | 0.722 | 0.665 | 0.824 | 0.666 | 0.644
24 | ABC-1 | 0.595 | 0.559 | 0.564 | 0.439 | 0.484 | 1.09 | 1.04 | 1.23 | 0.988 | 0.68 | 1.14 | 1.32 | 1.12 | 0.87 | 1.3 | 0.513 | 0.578 | 0.712 | 0.626 | 0.371
25 | LCLC-103H | 0.551 | 0.492 | 0.464 | 0.494 | 0.421 | 1.07 | 1.03 | 1.05 | 1.07 | 1.06 | 0.71 | 0.81 | 0.731 | 0.717 | 0.735 | 0.494 | 0.393 | 0.5 | 0.49 | 0.398
26 | NCI-H441 | 0.615 | 0.785 | 0.684 | 0.654 | 0.581 | 0.904 | 0.665 | 0.684 | 0.617 | 0.947 | 0.235 | 0.245 | 0.191 | 0.26 | 0.235 | 0.603 | 0.59 | 0.678 | 0.573 | 0.506
27 | EPLC-272H | 0.366 | 0.296 | 0.32 | 0.346 | 0.317 | 0.948 | 0.846 | 1.06 | 0.948 | 0.91 | 0.386 | 0.386 | 0.395 | 0.341 | 0.327 | 0.297 | 0.286 | 0.293 | 0.258 | 0.249
